Measurements taken from the kinase profiling compilation of Christmann-Franck et al. (2016).

Key:
Assay in all cases: radiometric filter-binding kinase assay
[1] = system: AKT1 (human), P31749 [S473D]
BRSK2 (human) = BRSK2 (human) (UniProt Q8IWQ3)
CSNK2A1 (human) = CSNK2A1 (human) (UniProt P68400)
DYRK1A (human) = DYRK1A (human) (UniProt Q13627)
DYRK3 (human) = DYRK3 (human) (UniProt O43781)
IKBKB (human) = IKBKB (human) (UniProt O14920)
MAPK11 (human) = MAPK11 (human) (UniProt Q15759)
MAPK12 (human) = MAPK12 (human) (UniProt P53778)
MAPK12 (human), sequence (P53778 whole entry, looked up): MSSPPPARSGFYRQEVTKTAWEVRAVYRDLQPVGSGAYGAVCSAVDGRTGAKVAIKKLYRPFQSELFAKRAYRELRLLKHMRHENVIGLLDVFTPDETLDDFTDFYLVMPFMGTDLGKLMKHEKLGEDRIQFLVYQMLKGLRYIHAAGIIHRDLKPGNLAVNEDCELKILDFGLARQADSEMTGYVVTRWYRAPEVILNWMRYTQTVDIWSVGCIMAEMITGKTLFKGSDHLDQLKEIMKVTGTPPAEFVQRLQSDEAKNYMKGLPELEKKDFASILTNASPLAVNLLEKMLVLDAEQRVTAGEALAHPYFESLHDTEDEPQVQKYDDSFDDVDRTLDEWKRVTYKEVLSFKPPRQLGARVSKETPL

MAPK14 (human) = MAPK14 (human) (UniProt Q16539)
MAPK14 (human), sequence (Q16539 whole entry, looked up): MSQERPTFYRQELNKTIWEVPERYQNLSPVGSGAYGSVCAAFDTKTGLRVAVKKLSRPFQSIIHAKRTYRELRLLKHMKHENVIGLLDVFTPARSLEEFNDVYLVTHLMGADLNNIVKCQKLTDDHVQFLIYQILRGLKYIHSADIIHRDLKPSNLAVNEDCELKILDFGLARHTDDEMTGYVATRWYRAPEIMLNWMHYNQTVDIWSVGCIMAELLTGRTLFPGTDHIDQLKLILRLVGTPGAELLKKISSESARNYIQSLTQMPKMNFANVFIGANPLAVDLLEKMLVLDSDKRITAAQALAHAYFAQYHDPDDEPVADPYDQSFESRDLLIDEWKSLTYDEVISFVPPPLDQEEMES

MAPK3 (human) = MAPK3 (human) (UniProt P27361)
MAPK8 (human) = MAPK8 (human) (UniProt P45983)
MAPKAPK3 (human) = MAPKAPK3 (human) (UniProt Q16644)
MAPKAPK3 (human), sequence (Q16644 whole entry, looked up): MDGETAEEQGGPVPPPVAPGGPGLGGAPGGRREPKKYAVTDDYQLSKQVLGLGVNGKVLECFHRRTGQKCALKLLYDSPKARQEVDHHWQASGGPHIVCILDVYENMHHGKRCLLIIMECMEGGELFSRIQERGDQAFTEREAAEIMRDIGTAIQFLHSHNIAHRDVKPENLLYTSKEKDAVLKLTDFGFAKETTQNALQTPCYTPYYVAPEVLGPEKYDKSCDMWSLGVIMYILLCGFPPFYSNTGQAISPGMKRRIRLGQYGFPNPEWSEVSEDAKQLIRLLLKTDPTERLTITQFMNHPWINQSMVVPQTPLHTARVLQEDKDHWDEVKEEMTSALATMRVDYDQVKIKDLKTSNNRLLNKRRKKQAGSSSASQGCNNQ

MAPKAPK5 (human) = MAPKAPK5 (human) (UniProt Q8IW41)
MKNK2 (human) = MKNK2 (human) (UniProt Q9HBH9)
MKNK2 (human), sequence (Q9HBH9 whole entry, looked up): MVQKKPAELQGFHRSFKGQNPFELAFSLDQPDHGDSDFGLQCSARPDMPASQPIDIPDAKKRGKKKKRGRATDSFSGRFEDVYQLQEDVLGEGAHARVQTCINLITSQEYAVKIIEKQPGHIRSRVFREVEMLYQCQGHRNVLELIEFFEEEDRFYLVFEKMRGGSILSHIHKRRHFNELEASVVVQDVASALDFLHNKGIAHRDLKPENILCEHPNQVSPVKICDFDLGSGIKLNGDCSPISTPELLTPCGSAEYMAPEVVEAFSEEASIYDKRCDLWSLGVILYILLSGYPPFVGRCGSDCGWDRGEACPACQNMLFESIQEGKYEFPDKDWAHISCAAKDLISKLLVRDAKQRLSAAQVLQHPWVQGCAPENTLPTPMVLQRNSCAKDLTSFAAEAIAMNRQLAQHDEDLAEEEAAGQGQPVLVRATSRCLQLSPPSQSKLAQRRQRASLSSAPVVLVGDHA

PAK4 (human) = PAK4 (human) (UniProt O96013)
PAK4 (human), sequence (O96013 whole entry, looked up): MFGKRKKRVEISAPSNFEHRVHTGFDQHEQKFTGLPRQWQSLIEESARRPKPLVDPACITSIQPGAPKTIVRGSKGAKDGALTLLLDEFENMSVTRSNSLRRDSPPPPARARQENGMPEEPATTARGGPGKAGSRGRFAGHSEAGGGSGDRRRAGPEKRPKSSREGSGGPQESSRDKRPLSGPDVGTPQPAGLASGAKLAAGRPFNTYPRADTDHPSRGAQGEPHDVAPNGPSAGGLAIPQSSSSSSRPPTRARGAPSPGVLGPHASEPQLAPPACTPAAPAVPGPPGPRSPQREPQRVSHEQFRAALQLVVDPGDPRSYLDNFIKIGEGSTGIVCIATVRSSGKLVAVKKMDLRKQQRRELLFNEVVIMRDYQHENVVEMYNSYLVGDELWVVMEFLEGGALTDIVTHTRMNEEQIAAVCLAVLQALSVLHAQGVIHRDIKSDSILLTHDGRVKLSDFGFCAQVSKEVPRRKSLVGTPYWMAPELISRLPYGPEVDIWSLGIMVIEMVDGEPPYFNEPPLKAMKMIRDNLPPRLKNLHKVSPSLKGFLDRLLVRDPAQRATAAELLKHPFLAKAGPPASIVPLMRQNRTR

PIM1 (human) = PIM1 (human) (UniProt P11309)
PIM1 (human), sequence (P11309 whole entry, looked up): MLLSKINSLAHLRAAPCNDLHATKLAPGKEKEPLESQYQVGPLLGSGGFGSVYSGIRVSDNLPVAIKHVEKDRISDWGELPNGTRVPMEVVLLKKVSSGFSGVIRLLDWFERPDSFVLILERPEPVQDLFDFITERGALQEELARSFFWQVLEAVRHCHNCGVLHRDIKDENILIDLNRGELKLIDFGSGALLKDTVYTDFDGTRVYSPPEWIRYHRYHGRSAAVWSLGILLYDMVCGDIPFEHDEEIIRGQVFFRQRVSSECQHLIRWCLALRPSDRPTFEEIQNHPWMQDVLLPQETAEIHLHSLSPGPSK

PIM2 (human) = PIM2 (human) (UniProt Q9P1W9)
PIM2 (human), sequence (Q9P1W9 whole entry, looked up): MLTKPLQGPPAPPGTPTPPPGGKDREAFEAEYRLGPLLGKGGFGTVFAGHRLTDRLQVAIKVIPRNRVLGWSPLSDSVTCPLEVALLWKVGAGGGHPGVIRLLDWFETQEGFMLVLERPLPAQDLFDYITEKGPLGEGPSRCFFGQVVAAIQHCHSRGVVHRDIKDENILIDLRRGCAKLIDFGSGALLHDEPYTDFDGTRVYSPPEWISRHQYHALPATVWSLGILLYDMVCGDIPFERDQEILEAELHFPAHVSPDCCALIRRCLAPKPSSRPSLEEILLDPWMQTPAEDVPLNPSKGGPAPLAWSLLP

PIM3 (human) = PIM3 (human) (UniProt Q86V86)
PLK1 (human) = PLK1 (human) (UniProt P53350)
PLK1 (human), sequence (P53350 whole entry, looked up): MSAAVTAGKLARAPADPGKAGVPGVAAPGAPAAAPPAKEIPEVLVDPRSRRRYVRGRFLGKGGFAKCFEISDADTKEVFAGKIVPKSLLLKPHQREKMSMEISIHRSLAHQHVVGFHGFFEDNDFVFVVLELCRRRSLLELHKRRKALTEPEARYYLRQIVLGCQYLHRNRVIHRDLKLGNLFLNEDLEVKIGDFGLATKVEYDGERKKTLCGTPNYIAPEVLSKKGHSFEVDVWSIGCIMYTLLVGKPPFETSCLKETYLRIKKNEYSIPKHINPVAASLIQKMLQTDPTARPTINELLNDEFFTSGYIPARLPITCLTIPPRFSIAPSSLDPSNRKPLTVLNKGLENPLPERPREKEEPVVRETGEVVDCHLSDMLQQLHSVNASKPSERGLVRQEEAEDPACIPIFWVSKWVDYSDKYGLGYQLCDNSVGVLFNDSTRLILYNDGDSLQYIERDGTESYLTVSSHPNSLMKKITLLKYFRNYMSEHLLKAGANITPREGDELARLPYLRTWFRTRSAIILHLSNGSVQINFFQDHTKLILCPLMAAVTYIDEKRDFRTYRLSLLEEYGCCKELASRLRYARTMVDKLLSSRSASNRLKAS

ROCK2 (rat) = settings: accession and sequence are those of the human protein
RPS6KA1 KD1 KD2 (human) = RPS6KA1 KD1 KD2 (human) (UniProt Q15418)
RPS6KA3 KD1 KD2 (human) = RPS6KA3 KD1 KD2 (human) (UniProt P51812)
[2] = system: RPS6KB1 (human), P23443 [T412E]
[3] = system: SGK1 (human), O00141 [S422D]
STK3 (human) = STK3 (human) (UniProt Q13188)

IKBKB (human), sequence (O14920 whole entry, looked up): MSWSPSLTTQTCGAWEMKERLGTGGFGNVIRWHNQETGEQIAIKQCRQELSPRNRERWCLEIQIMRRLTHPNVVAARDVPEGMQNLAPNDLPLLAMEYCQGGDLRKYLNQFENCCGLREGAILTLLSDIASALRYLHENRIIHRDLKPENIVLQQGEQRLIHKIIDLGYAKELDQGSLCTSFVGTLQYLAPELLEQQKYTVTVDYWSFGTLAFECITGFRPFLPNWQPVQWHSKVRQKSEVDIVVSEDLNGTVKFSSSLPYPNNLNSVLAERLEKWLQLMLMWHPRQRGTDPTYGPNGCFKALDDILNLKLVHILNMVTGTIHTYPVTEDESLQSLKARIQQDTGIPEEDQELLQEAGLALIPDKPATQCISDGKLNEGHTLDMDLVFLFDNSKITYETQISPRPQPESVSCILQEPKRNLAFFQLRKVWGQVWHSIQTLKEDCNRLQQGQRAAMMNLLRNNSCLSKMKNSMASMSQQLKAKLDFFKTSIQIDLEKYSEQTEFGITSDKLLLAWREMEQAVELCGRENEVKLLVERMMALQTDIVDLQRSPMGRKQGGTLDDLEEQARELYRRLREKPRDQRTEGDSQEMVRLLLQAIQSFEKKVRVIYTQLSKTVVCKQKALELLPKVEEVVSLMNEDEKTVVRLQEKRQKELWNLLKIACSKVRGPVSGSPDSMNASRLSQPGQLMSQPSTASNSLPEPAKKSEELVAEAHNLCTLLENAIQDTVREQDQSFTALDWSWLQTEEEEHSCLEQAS
CSNK2A1 (human), sequence (P68400 whole entry, looked up): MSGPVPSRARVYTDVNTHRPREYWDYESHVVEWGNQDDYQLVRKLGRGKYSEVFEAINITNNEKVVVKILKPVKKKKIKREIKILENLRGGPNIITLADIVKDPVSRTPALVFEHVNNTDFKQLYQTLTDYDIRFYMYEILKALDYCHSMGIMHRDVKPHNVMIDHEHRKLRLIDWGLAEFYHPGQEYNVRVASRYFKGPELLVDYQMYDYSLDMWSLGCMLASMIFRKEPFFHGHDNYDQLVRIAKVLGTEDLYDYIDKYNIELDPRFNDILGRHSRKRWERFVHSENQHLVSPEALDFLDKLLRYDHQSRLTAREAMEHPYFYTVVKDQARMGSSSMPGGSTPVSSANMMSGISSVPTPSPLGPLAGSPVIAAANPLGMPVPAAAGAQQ
MAPK11 (human), sequence (Q15759 whole entry, looked up): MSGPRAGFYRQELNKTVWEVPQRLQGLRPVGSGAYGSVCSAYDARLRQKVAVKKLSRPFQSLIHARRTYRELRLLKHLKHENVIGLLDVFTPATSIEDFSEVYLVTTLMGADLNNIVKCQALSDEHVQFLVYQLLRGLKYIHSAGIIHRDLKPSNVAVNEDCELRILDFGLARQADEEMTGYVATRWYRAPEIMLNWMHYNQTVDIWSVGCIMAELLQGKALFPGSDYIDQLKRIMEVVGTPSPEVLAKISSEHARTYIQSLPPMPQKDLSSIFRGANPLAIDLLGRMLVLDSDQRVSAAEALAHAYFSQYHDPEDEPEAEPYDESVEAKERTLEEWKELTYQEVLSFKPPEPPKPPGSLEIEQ

SMILES: COc1ccc2c(c1)c1c3c(c4c5ccccc5n(C)c4c1n2CC(O)CN(C)C)C(=O)NC3=O (stereo not given)
- residual activity ([1]; compound 0.1 µM): 70%
- residual activity ([1]; compound 1.0 µM): 34%
- residual activity ([1]; compound 10.0 µM): 8%
- residual activity (BRSK2 (human); compound 0.1 µM): 72%
- residual activity (BRSK2 (human); compound 1.0 µM): 18%
- residual activity (BRSK2 (human); compound 10.0 µM): 6%
- residual activity (CSNK2A1 (human); compound 0.1 µM): 105%
- residual activity (CSNK2A1 (human); compound 1.0 µM): 83%
- residual activity (CSNK2A1 (human); compound 10.0 µM): 71%
- residual activity (DYRK1A (human); compound 0.1 µM): 96%
- residual activity (DYRK1A (human); compound 1.0 µM): 68%
- residual activity (DYRK1A (human); compound 10.0 µM): 41%
- residual activity (DYRK3 (human); compound 0.1 µM): 92%
- residual activity (DYRK3 (human); compound 1.0 µM): 57%
- residual activity (DYRK3 (human); compound 10.0 µM): 24%
- residual activity (IKBKB (human); compound 0.1 µM): 104%
- residual activity (IKBKB (human); compound 1.0 µM): 94%
- residual activity (IKBKB (human); compound 10.0 µM): 80%
- residual activity (MAPK11 (human); compound 0.1 µM): 119%
- residual activity (MAPK11 (human); compound 1.0 µM): 102%
- residual activity (MAPK11 (human); compound 10.0 µM): 95%
- residual activity (MAPK12 (human); compound 0.1 µM): 99%
- residual activity (MAPK12 (human); compound 1.0 µM): 90%
- residual activity (MAPK12 (human); compound 10.0 µM): 74%
- residual activity (MAPK14 (human); compound 0.1 µM): 107%
- residual activity (MAPK14 (human); compound 1.0 µM): 106%
- residual activity (MAPK14 (human); compound 10.0 µM): 86%
- residual activity (MAPK3 (human); compound 0.1 µM): 94%
- residual activity (MAPK3 (human); compound 1.0 µM): 102%
- residual activity (MAPK3 (human); compound 10.0 µM): 96%
- residual activity (MAPK8 (human); compound 0.1 µM): 103%
- residual activity (MAPK8 (human); compound 1.0 µM): 99%
- residual activity (MAPK8 (human); compound 10.0 µM): 60%
- residual activity (MAPKAPK3 (human); compound 0.1 µM): 131%
- residual activity (MAPKAPK3 (human); compound 1.0 µM): 92%
- residual activity (MAPKAPK3 (human); compound 10.0 µM): 79%
- residual activity (MAPKAPK5 (human); compound 0.1 µM): 104%
- residual activity (MAPKAPK5 (human); compound 1.0 µM): 103%
- residual activity (MAPKAPK5 (human); compound 10.0 µM): 108%
- residual activity (MKNK2 (human); compound 0.1 µM): 90%
- residual activity (MKNK2 (human); compound 1.0 µM): 88%
- residual activity (MKNK2 (human); compound 10.0 µM): 70%
- residual activity (PAK4 (human); compound 0.1 µM): 99%
- residual activity (PAK4 (human); compound 1.0 µM): 82%
- residual activity (PAK4 (human); compound 10.0 µM): 66%
- residual activity (PIM1 (human); compound 0.1 µM): 9%
- residual activity (PIM1 (human); compound 1.0 µM): 1%
- residual activity (PIM1 (human); compound 10.0 µM): 2%
- residual activity (PIM2 (human); compound 0.1 µM): 38%
- residual activity (PIM2 (human); compound 1.0 µM): 6%
- residual activity (PIM2 (human); compound 10.0 µM): 1%
- residual activity (PIM3 (human); compound 0.1 µM): 2%
- residual activity (PIM3 (human); compound 1.0 µM): 1%
- residual activity (PIM3 (human); compound 10.0 µM): 1%
- residual activity (PLK1 (human); compound 0.1 µM): 99%
- residual activity (PLK1 (human); compound 1.0 µM): 98%
- residual activity (PLK1 (human); compound 10.0 µM): 79%
- residual activity (ROCK2 (rat); compound 0.1 µM): 118%
- residual activity (ROCK2 (rat); compound 1.0 µM): 115%
- residual activity (ROCK2 (rat); compound 10.0 µM): 112%
- residual activity (RPS6KA1 KD1 KD2 (human); compound 0.1 µM): 10%
- residual activity (RPS6KA1 KD1 KD2 (human); compound 1.0 µM): 5%
- residual activity (RPS6KA1 KD1 KD2 (human); compound 10.0 µM): 5%
- residual activity (RPS6KA3 KD1 KD2 (human); compound 0.1 µM): 3%
- residual activity (RPS6KA3 KD1 KD2 (human); compound 1.0 µM): 0%
- residual activity (RPS6KA3 KD1 KD2 (human); compound 10.0 µM): 0%
- residual activity ([2]; compound 0.1 µM): 11%
- residual activity ([2]; compound 1.0 µM): 2%
- residual activity ([2]; compound 10.0 µM): 1%
- residual activity ([3]; compound 0.1 µM): 69%
- residual activity ([3]; compound 1.0 µM): 25%
- residual activity ([3]; compound 10.0 µM): 6%
- residual activity (STK3 (human); compound 0.1 µM): 20%
- residual activity (STK3 (human); compound 1.0 µM): 3%
- residual activity (STK3 (human); compound 10.0 µM): 2%

SMILES: Cc1cccc(Nc2nn(C)c3ncnc(N)c23)c1
- residual activity ([1]; compound 1.0 µM): 100%
- residual activity ([1]; compound 10.0 µM): 114%
- residual activity (BRSK2 (human); compound 1.0 µM): 102%
- residual activity (BRSK2 (human); compound 10.0 µM): 100%
- residual activity (CSNK2A1 (human); compound 1.0 µM): 93%
- residual activity (CSNK2A1 (human); compound 10.0 µM): 93%
- residual activity (DYRK1A (human); compound 1.0 µM): 90%
- residual activity (DYRK1A (human); compound 10.0 µM): 101%
- residual activity (DYRK3 (human); compound 1.0 µM): 136%
- residual activity (DYRK3 (human); compound 10.0 µM): 137%
- residual activity (IKBKB (human); compound 1.0 µM): 101%
- residual activity (IKBKB (human); compound 10.0 µM): 101%
- residual activity (MAPK11 (human); compound 1.0 µM): 131%
- residual activity (MAPK11 (human); compound 10.0 µM): 111%
- residual activity (MAPK12 (human); compound 1.0 µM): 120%
- residual activity (MAPK12 (human); compound 10.0 µM): 132%
- residual activity (MAPK14 (human); compound 1.0 µM): 118%
- residual activity (MAPK14 (human); compound 10.0 µM): 122%
- residual activity (MAPK3 (human); compound 1.0 µM): 114%
- residual activity (MAPK3 (human); compound 10.0 µM): 108%
- residual activity (MAPK8 (human); compound 1.0 µM): 99%
- residual activity (MAPK8 (human); compound 10.0 µM): 97%
- residual activity (MAPKAPK3 (human); compound 1.0 µM): 91%
- residual activity (MAPKAPK3 (human); compound 10.0 µM): 130%
- residual activity (MAPKAPK5 (human); compound 1.0 µM): 101%
- residual activity (MAPKAPK5 (human); compound 10.0 µM): 109%
- residual activity (MKNK2 (human); compound 1.0 µM): 103%
- residual activity (MKNK2 (human); compound 10.0 µM): 76%
- residual activity (PAK4 (human); compound 1.0 µM): 86%
- residual activity (PAK4 (human); compound 10.0 µM): 95%
- residual activity (PIM1 (human); compound 1.0 µM): 127%
- residual activity (PIM1 (human); compound 10.0 µM): 115%
- residual activity (PIM2 (human); compound 1.0 µM): 115%
- residual activity (PIM2 (human); compound 10.0 µM): 113%
- residual activity (PIM3 (human); compound 1.0 µM): 120%
- residual activity (PIM3 (human); compound 10.0 µM): 121%
- residual activity (PLK1 (human); compound 1.0 µM): 96%
- residual activity (PLK1 (human); compound 10.0 µM): 106%
- residual activity (ROCK2 (rat); compound 1.0 µM): 117%
- residual activity (ROCK2 (rat); compound 10.0 µM): 106%
- residual activity (RPS6KA1 KD1 KD2 (human); compound 1.0 µM): 108%
- residual activity (RPS6KA1 KD1 KD2 (human); compound 10.0 µM): 101%
- residual activity (RPS6KA3 KD1 KD2 (human); compound 1.0 µM): 88%
- residual activity (RPS6KA3 KD1 KD2 (human); compound 10.0 µM): 99%
- residual activity ([2]; compound 1.0 µM): 127%
- residual activity ([2]; compound 10.0 µM): 137%
- residual activity ([3]; compound 1.0 µM): 104%
- residual activity ([3]; compound 10.0 µM): 113%
- residual activity (STK3 (human); compound 1.0 µM): 90%
- residual activity (STK3 (human); compound 10.0 µM): 102%
